{"source": "patent US20140357512A1", "about": "“HISTONE DEACETYLASE (HDAC) BIOMARKERS IN MULTIPLE MYELOMA” (priority 2013, published 2014)", "system": "human myeloma cell line MM.1S", "assay": "SILAC acetylated-lysine peptide profiling, HDAC inhibitor vs DMSO (light/heavy ratio)", "format": "cell-based", "excerpt": "An embodiment of the invention comprises utilizing the SILAC method in order to quantitate changes in protein expression between two or more populations of cells. The SILAC method is a technique based on mass spectrometry that detects differences in protein abundance among samples using non-radioactive isotopic labeling. The SILAC method is known in the art, and described in detail in Ong et al., “Stable Isotope Labeling by Amino Acids in Cell Culture, SILAC, as a Simple and Accurate Approach to Expression Proteomics”, Molecular & Cellular Proteomics, vol. 1, pp. 376-386 (2002), which is incorporated herein by reference in its entirety.\nBriefly, the SILAC method involves growing two populations of cells in cell culture. The first population of cells is grown in growth media containing normal amino acids (“normal media”). The second population of cells is grown in media lacking a standard essential amino acid (such as lysine), but is then supplemented with a non-radioactive, isotopically labeled form of that essential amino acid (such as lysine labeled with ^13C atoms, rather than normal ^12C atoms), which is called “heavy media”. When the two populations of cells are each growing in the medium, they incorporate the amino acids into all of their proteins. The growth of cells maintained in the heavy media is no different from that in normal media. All peptides containing the heavy amino acids are heavier than their normal counterparts. The cells from each of the two populations of cells are lysed. The lysates from each of the two cell populations are then combined. The combined cell lysates are then analyzed by mass spectrometry. Pairs of chemically identical peptides of different stable isotope composition can be differentiated in a mass spectrometer due to their difference in mass. The ratio of peak intensities in the mass spectrum for such peptide pairs reflects the abundance ratio for the two proteins.\nThis example describes SILAC studies that were performed to compare the effects of three different HDAC inhibitors (Compound A, Compound B, and tubastatin A) to a control on a human multiple myeloma cell line. The HDAC inhibitors were also compared amongst themselves to determine differences in their effects.\nA human myeloma cell line MM.1S was grown using either ^12C (light) or ^13C (heavy) lysine containing culture medium. The “heavy” cells were treated with DMSO as the control, and the “light” cells were treated with a single HDAC inhibitor at 37° C. for 6 hours. The heavy and light cells were lysed, and the lysates were mixed in 1:1 ratio and digested with the protease trypsin. The acetylated lysine containing peptides (due to the action of the HDAC inhibitor) in the digested peptide pool were captured by a non-specific anti-acetylated lysine antibody cocktail (the antibodies identify both light and heavy acetylated peptides), and subjected to mass spectrometry analysis in order to identify thousands of individual peptides.\nThousands of peptides were identified in pairs (^12C and ^13C) due to their known mass differences. The amino acid sequence and quantitative ratio (Light/Heavy) of a given peptide in two differentially treated cell lysates were then determined and annotated with their possible protein (gene) sources.\nAs stated above, three HDAC inhibitors (Compound A, Compound B, and Tubastatin A) were used. Thus, the SILAC method was performed three times, with a different HDAC inhibitor compared to a control each time. Accordingly, there are three pairs of quantitative data in the table below, i.e., Compound A:DMSO, Compound B:DMSO, and Tubastatin A:DMSO. A cut-off of 1.30 fold of change (increase or decrease) was then used to determine “changed” or “+” in the table, and any peptides with a fold of change less than 1.3 fold were determined to be “unchanged” or “0” in the table. Those peptides that were not identified were marked as “NA” in the table. […]"}
{"molecule": "O=C(NO)c1cnc(NC2(c3cccc(F)c3)CCCCC2)nc1", "note": "[Compound B, 2-((1-(3-fluorophenyl)cyclohexyl)amino)-N-hydroxypyrimidine-5-carboxamide]", "values": [{"measurement": "L/H ratio of acetylated peptide", "setting": "LCMLYHPDK(ac)HRDPELK (SEQ ID NO: 389), Isoform 3 of DnaJ homolog subfamily C member 11 [45], DNAJC11", "result": "−0.69", "unit": "log 2"}, {"measurement": "L/H ratio of acetylated peptide", "setting": "LHSNYYK(ac)HK (SEQ ID NO: 371), Uncharacterized protein C6orf125 [69], C6orf125", "result": 0.52, "unit": "log 2"}, {"measurement": "L/H ratio of acetylated peptide", "setting": "LHYK(ac)HESWLLHR (SEQ ID NO: 385), Deoxycytidine kinase [211], DCK", "result": "−0.43", "unit": "log 2"}, {"measurement": "light to heavy ratio (L/H ratio) of acetylated peptide, log 2 scale", "setting": "LIK(ac)VHLDK (SEQ ID NO: 215), 40S ribosomal protein S7 [155], RPS7", "result": 0.00}, {"measurement": "L/H ratio of acetylated peptide", "setting": "LK(ac)ADVFK (SEQ ID NO: 375), Isoform 1 of Chromodomain-helicase-DNA-binding protein 4 [959], CHD4", "result": "−0.45", "unit": "log 2"}, {"measurement": "L/H ratio of acetylated peptide", "setting": "LK(ac)AEKYR (SEQ ID NO: 414), Isoform 1 of Leucine-rich repeat and IQ domain-containing protein 3 [557], LRRIQ3", "result": "−1.00", "unit": "log 2"}, {"measurement": "L/H ratio of acetylated peptide LYK(ac)[…] (SEQ ID NO: 4)", "setting": "LMNB1 [261], log 2 scale, drug vs DMSO", "result": 0.48}, {"measurement": "L/H ratio of acetylated peptide […](ac)LENAR (SEQ ID NO: 58)", "setting": "LMNB1 [271], log 2 scale, drug vs DMSO", "result": 0.00}, {"measurement": "light to heavy ratio (L/H ratio) of acetylated peptide, log 2 scale", "setting": "LNEQK(ac)LAQLEEAK (SEQ ID NO: 133), ATP synthase subunit b mitochondrial [131], ATP5F1", "result": 0.00}, {"measurement": "L/H ratio of acetylated peptide", "setting": "LNPK(ac)[…] (SEQ ID NO: 448), Serine hydroxymethyltransferase mitochondrial [200], SHMT2", "result": "−0.41", "unit": "log 2"}, {"measurement": "L/H ratio of acetylated peptide GFGYK(ac)GSCFHR (SEQ ID NO: 59)", "setting": "LOC390956 [71], log 2 scale, drug vs DMSO", "result": 0.00}, {"measurement": "light to heavy ratio (L/H ratio) of acetylated peptide, log 2 scale", "setting": "LSLDK(ac)VFR (SEQ ID NO: 226), Stomatin-like protein 2 [145], STOML2", "result": 0.00}, {"measurement": "light to heavy ratio (L/H ratio) of acetylated peptide, log 2 scale", "setting": "LTEAKPVDK(ac)VK (SEQ ID NO: 221), cDNA FLJ60124 highly similar to Mitochondrial dicarboxylate carrier [142], SLC25A10", "result": 0.00}, {"measurement": "L/H ratio of acetylated peptide", "setting": "LVQTAELTK(ac)VFEIR (SEQ ID NO: 398), Glia maturation factor gamma [119], GMFG", "result": "−0.80", "unit": "log 2"}, {"measurement": "light to heavy ratio (L/H ratio) of acetylated peptide, log 2 scale", "setting": "LYATMEK(ac)HK (SEQ ID NO: 251), Histone acetyltransferase p300 [1590], EP300", "result": 0.00}, {"measurement": "light to heavy ratio (L/H ratio) of acetylated peptide AVLK(ac)[…] (SEQ ID NO: 262)", "setting": "Laminin receptor-like protein LAMRL5 [89], SNORA6, RPSAP15, SNORA62, RPSA, drug:DMSO", "result": 0.00, "unit": "log 2"}, {"measurement": "light to heavy ratio (L/H ratio) of acetylated peptide SYVSEK(ac)DVTSAK (SEQ ID NO: 628)", "setting": "Leucine-rich PPR motif-containing protein mitochondrial [1332], gene LRPPRC, inhibitor:DMSO", "result": 0.00, "unit": "log 2"}, {"measurement": "L/H ratio of acetylated peptide ICCQFDFK(ac)R (SEQ ID NO: 60)", "setting": "MAN2A1 [373], log 2 scale, drug vs DMSO", "result": 0.00}, {"measurement": "L/H ratio of acetylated peptide YLTNQK(ac)NSNSK(ac)NDR (SEQ ID NO: 17)", "setting": "MEAF6 [69:74], log 2 scale, drug vs DMSO", "result": 0.43}, {"measurement": "light to heavy ratio (L/H ratio) of acetylated peptide, log 2 scale", "setting": "MKENQK(ac)[…] (SEQ ID NO: 169), Isoform 2 of Heat shock protein HSP 90-alpha [611], HSP90AA1", "result": 0.00}, {"measurement": "L/H ratio of acetylated peptide", "setting": "MLEK(ac)DVCEK (SEQ ID NO: 446), Isoform 1 of Protein RUFY3 [382], RUFY3", "result": 0.62, "unit": "log 2"}, {"measurement": "L/H ratio of acetylated peptide", "setting": "MLK(ac)QMLFR (SEQ ID NO: 433), Proteasome subunit beta type-7 [127], PSMB7", "result": "−0.47", "unit": "log 2"}, {"measurement": "L/H ratio of acetylated peptide TLVLSDK(ac)HSPQK(ac)K (SEQ ID NO: 5)", "setting": "MLL3 [2809:2814], log 2 scale, drug vs DMSO", "result": 0.38}, {"measurement": "L/H ratio of acetylated peptide LNK(ac)DQWEER (SEQ ID NO: 10)", "setting": "MSN [165], log 2 scale, drug vs DMSO", "result": 0.71}, {"measurement": "light to heavy ratio (L/H ratio) of acetylated peptide VHLSQK(ac)YK (SEQ ID NO: 343)", "setting": "Matrin-3 [473], MATR3, SNHG4, drug:DMSO", "result": 0.40, "unit": "log 2"}, {"measurement": "light to heavy ratio (L/H ratio) of acetylated peptide FLNK(ac)LAEER (SEQ ID NO: 342)", "setting": "Matrin-3 [836], MATR3, SNHG4, drug:DMSO", "result": "−0.44", "unit": "log 2"}, {"measurement": "light to heavy ratio (L/H ratio) of acetylated peptide MTDK(ac)CFR (SEQ ID NO: 573)", "setting": "Mitochondrial import inner membrane translocase subunit Tim13 [45], gene TIMM13, inhibitor:DMSO", "result": 0.00, "unit": "log 2"}, {"measurement": "light to heavy ratio (L/H ratio), log 2 scale, acetylated peptide YVK(ac)ALFR (SEQ ID NO: 771)", "setting": "Mitochondrial import receptor subunit TOM70 [188], gene TOMM70A, drug:DMSO", "result": 0.00}, {"measurement": "light to heavy ratio (L/H ratio) of acetylated peptide LSLLSK(ac)FR (SEQ ID NO: 564)", "setting": "Mitochondrial trifunctional protein beta subunit (Fragment) [100], gene HADHB, inhibitor:DMSO", "result": 0.00, "unit": "log 2"}, {"measurement": "light to heavy ratio (L/H ratio) of acetylated peptide EIFQNEK(ac)R (SEQ ID NO: 288)", "setting": "NAD(P) transhydrogenase mitochondrial [70], NNT, drug:DMSO", "result": 0.00, "unit": "log 2"}, {"measurement": "light to heavy ratio (L/H ratio) of acetylated peptide AISPDK(ac)DNFYFDVK (SEQ ID NO: 284)", "setting": "NAD(P) transhydrogenase mitochondrial [403], NNT, drug:DMSO", "result": 0.00, "unit": "log 2"}, {"measurement": "light to heavy ratio (L/H ratio) of acetylated peptide, log 2 scale", "setting": "NIDPK(ac)PCTPR (SEQ ID NO: 148), Isoform 1 of DAZ-associated protein 1 [83], DAZAP1", "result": 0.00}]}
